Measurements: BindingDB's records for PubMed 8558460 (Yamanouchi Pharmaceutical, 1996)
pKi: −log10 of the molar value. “And” between values parts separate entries of the source, which are not always exact repeats. Equal values may be shown once.

Key:
Glutamate receptor 3 = Glutamate receptor 3 (Rattus norvegicus, UniProt P19492)
[1] = biological target: Glutamate receptor ionotropic, kainate 1 (Rattus norvegicus, UniProt P22756)
[2] = biological target: Glutamate receptor ionotropic, NMDA 1 (Rattus norvegicus, UniProt P35439)

Chain of Glutamate receptor ionotropic, kainate 1 (P22756 whole entry): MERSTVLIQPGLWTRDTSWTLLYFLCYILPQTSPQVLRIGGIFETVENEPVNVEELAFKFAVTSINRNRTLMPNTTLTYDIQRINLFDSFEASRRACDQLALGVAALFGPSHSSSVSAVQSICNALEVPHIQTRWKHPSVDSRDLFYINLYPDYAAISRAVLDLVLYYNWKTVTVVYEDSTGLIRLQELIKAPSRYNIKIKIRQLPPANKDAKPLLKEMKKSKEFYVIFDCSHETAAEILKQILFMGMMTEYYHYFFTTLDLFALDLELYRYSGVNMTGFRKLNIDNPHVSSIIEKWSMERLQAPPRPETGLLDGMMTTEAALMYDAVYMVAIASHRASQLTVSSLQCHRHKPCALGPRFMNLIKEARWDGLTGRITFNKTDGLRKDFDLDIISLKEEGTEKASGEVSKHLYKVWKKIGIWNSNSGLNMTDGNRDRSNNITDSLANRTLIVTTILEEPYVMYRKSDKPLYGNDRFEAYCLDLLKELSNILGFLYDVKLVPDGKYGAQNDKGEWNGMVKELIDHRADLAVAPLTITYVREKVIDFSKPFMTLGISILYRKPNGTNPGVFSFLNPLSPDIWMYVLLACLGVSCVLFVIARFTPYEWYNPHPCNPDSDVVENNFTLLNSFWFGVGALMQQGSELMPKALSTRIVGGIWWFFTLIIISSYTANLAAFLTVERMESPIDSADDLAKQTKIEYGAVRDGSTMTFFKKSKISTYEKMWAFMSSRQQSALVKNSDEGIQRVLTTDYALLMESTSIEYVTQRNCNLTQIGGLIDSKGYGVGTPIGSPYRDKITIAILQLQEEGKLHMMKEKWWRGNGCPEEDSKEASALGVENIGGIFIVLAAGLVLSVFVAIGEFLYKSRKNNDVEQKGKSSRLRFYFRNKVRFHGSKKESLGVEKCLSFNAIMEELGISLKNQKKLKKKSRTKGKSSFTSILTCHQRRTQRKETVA
Chain of Glutamate receptor 3 (P19492 whole entry): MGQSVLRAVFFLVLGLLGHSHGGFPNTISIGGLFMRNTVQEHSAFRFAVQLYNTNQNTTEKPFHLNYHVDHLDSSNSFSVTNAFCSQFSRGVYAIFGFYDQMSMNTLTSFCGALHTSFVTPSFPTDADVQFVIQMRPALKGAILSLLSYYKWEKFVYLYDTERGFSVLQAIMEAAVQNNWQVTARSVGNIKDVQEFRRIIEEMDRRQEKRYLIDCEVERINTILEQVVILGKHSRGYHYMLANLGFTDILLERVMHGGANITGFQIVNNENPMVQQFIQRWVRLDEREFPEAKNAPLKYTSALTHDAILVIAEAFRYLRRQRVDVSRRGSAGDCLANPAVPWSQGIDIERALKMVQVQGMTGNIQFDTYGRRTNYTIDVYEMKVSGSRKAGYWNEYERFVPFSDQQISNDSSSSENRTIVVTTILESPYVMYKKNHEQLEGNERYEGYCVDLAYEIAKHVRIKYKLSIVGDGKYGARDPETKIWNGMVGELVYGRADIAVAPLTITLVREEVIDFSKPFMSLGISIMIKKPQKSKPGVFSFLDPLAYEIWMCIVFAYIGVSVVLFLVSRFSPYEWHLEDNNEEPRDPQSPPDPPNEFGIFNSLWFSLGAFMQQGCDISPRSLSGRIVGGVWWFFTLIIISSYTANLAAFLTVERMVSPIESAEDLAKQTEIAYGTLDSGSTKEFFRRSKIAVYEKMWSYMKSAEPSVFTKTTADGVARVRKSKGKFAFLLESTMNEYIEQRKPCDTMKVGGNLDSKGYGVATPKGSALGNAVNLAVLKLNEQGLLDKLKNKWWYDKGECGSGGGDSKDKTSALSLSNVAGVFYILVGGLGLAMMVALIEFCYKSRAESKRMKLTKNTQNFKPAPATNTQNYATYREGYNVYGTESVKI

Row | SMILES | pKi (Glutamate receptor 3) | pKi [1] | pKi [2]
1 | O=C1N=c2cc(N(O)O)c(-n3ccnc3)cc2=NC1=O [CAS_3035216] | 7.08 | 5.66 | < 5.00
2 | N#Cc1cc2nc(O)c(O)nc2cc1[N+](=O)[O-] [7-Cyano-3-hydroxy-6-nitro-quinoxalin-2-ol anion] | – | 5.74 | < 5.00 and 5.25
